Data from PubChem BioAssay AID328 (DTP/NCI, 2004).
“And” between values parts separate entries of the source, which are not always exact repeats. Identical values can stand only once. Toxic doses and inconclusive results are not listed. How the source made its calls: active means survival T/C of 150% or more; inactive means T/C below 125% in these data.

Test system: BDF1 mice, P388 leukemia ip, median survival T/C
Assay: NCI In Vivo Anticancer Drug Screen. Data for tumor model P388 Leukemia (intraperitoneal) in B6D2F1 (BDF1) mice
Conditions: endpoint: median survival time, higher = longer survival
Summary of the method: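 Mice carrying the transplantable tumour receive compound or vehicle. Survival is followed in each arm, and the treated measure is divided by the vehicle measure.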

[1] = dose: 12.5 mg/kg/injection, schedule: Q01DX009 (ip), vehicle: saline with Tween-80
[2] = dose: 50.0 mg/kg/injection, schedule: Q04DX003 (ip), vehicle: Klucel (hydroxypropylcellulose) (HPC)
[3] = dose: 100.0 mg/kg/injection, schedule: Q04DX003 (ip), vehicle: Klucel (hydroxypropylcellulose) (HPC)
[4] = dose: 200.0 mg/kg/injection, schedule: Q04DX003 (ip), vehicle: Klucel (hydroxypropylcellulose) (HPC)
[5] = dose: 25.0 mg/kg/injection, schedule: Q01DX009 (ip), vehicle: saline with Tween-80
[6] = dose: 50.0 mg/kg/injection, schedule: Q01DX009 (ip), vehicle: saline with Tween-80
[7] = dose: 100.0 mg/kg/injection, schedule: Q01DX009 (ip), vehicle: saline with Tween-80
[8] = dose: 100.0 mg/kg/injection, schedule: Q04DX003 (ip), vehicle: saline with Tween-80
[9] = dose: 200.0 mg/kg/injection, schedule: Q01DX009 (ip), vehicle: saline with Tween-80
[10] = dose: 200.0 mg/kg/injection, schedule: Q04DX003 (ip), vehicle: saline with Tween-80
[11] = dose: 400.0 mg/kg/injection, schedule: Q01DX009 (ip), vehicle: saline with Tween-80
[12] = dose: 400.0 mg/kg/injection, schedule: Q04DX003 (ip), vehicle: saline with Tween-80

Measured: T/C

FC(F)(F)c1ccc2nc(CI)c(CI)nc2c1
inactive: dose: 1.37 mg/kg/injection, schedule: Q01DX009 (ip), vehicle: saline 115 % of control | dose: 1.5 mg/kg/injection, schedule: Q01DX009 (ip), vehicle: Klucel (hydroxypropylcellulose) (HPC) 105 % of control | dose: 2.05 mg/kg/injection, schedule: Q01DX009 (ip), vehicle: saline 115 % of control | dose: 3.0 mg/kg/injection, schedule: Q01DX009 (ip), vehicle: Klucel (hydroxypropylcellulose) (HPC) 105 % of control | dose: 6.0 mg/kg/injection, schedule: Q01DX009 (ip), vehicle: Klucel (hydroxypropylcellulose) (HPC) 111 % of control | dose: 12.0 mg/kg/injection, schedule: Q01DX009 (ip), vehicle: Klucel (hydroxypropylcellulose) (HPC) 122 % of control | dose: 12.0 mg/kg/injection, schedule: Q01DX009 (ip), vehicle: saline 105 % of control | dose: 12.0 mg/kg/injection, schedule: Q04DX003 (ip), vehicle: Klucel (hydroxypropylcellulose) (HPC) 118 % of control | [1] 105 % of control | dose: 18.0 mg/kg/injection, schedule: Q01DX009 (ip), vehicle: saline 100 % of control | dose: 24.0 mg/kg/injection, schedule: Q01DX009 (ip), vehicle: Klucel (hydroxypropylcellulose) (HPC) 122 % of control | dose: 25.0 mg/kg/injection, schedule: Q04DX003 (ip), vehicle: Klucel (hydroxypropylcellulose) (HPC) 109 % of control | dose: 27.0 mg/kg/injection, schedule: Q01DX009 (ip), vehicle: saline 105 % of control | dose: 28.0 mg/kg/injection, schedule: Q01DX009 (ip), vehicle: saline 100 % of control | dose: 40.0 mg/kg/injection, schedule: Q01DX009 (ip), vehicle: saline 89 % of control | dose: 48.0 mg/kg/injection, schedule: Q01DX009 (ip), vehicle: Klucel (hydroxypropylcellulose) (HPC) 122 % of control

O=C1NC(=O)C(c2ccccc2)(c2ccccc2)N1CCS
inactive: dose: 12.5 mg/kg/injection, schedule: Q01DX009 (ip), vehicle: saline 96 % of control and 104 % of control | dose: 25.0 mg/kg/injection, schedule: Q01DX009 (ip), vehicle: saline 99 % of control and 104 % of control | dose: 50.0 mg/kg/injection, schedule: Q01DX009 (ip), vehicle: saline 93 % of control | dose: 100.0 mg/kg/injection, schedule: Q01DX009 (ip), vehicle: saline 89 % of control and 99 % of control | dose: 200.0 mg/kg/injection, schedule: Q01DX009 (ip), vehicle: saline 112 % of control and 113 % of control

O=C(c1ccccc1)c1cccc(Cl)c1
inactive: [2] 104 % of control | [3] 90 % of control | [4] 104 % of control

Nc1ccc(OCCCCNC(=O)c2ccc(S(=O)(=O)F)cc2)c(Cl)c1
inactive: dose: 0.78 mg/kg/injection, schedule: Q01DX009 (ip), vehicle: saline with Tween-80 94 % of control | dose: 1.56 mg/kg/injection, schedule: Q01DX009 (ip), vehicle: saline with Tween-80 111 % of control | dose: 3.12 mg/kg/injection, schedule: Q01DX009 (ip), vehicle: saline with Tween-80 102 % of control | dose: 6.25 mg/kg/injection, schedule: Q01DX009 (ip), vehicle: saline with Tween-80 100 % of control | [1] 102 % of control | [5] 86 % of control and 100 % of control and 115 % of control | [6] 110 % of control | [7] 117 % of control | [8] 103 % of control | [9] 110 % of control | [10] 99 % of control

CC(C)(C)NCCC(O)c1cc2c(Cl)cc(Cl)cc2c2cc(C(F)(F)F)ccc12 (stereo unspecified)
inactive: [1] 90 % of control | [5] 106 % of control | [6] 108 % of control and 114 % of control

COc1ccc(OC)c(C(=O)CC(O)(C(F)(F)F)C(F)(F)F)c1
inactive: [7] 95 % of control | [8] 120 % of control | [9] 108 % of control | [10] 110 % of control | [11] 104 % of control | [12] 100 % of control

O=[N+]([O-])c1ccc(OCCNS(=O)(=O)c2cccc(S(=O)(=O)F)c2)c(Cl)c1
inactive: [1] 110 % of control | [6] 110 % of control | [7] 94 % of control | [8] 99 % of control | [9] 105 % of control | [10] 99 % of control | [11] 88 % of control | [12] 108 % of control

COC(=O)[C@@H]1[C@H](O)[C@H](C)[C@H](O)[C@@](C)(O)/C=C\C=C(C)C(=O)Nc2c(C)c(OC(C)=O)c3c(c2O)C(=O)C(C)=C2OCOC(=C23)C(C)=C[C@@](C)(O)[C@H](O)[C@@H](C)[C@H]1OC(C)=O
inactive: dose: 100.0 mg/kg/injection, schedule: Q01DX009 (ip), vehicle: Klucel (hydroxypropylcellulose) (HPC) 93 % of control and 105 % of control | dose: 200.0 mg/kg/injection, schedule: Q01DX009 (ip), vehicle: Klucel (hydroxypropylcellulose) (HPC) 120 % of control and 108 % of control | dose: 400.0 mg/kg/injection, schedule: Q01DX009 (ip), vehicle: Klucel (hydroxypropylcellulose) (HPC) 121 % of control and 113 % of control | dose: 400.0 mg/kg/injection, schedule: Q01DX009 (ip), vehicle: saline 90 % of control

c1ccc(C2OC2c2ccccc2)cc1 (stereo unspecified)
inactive: [2] 89 % of control | dose: 75.0 mg/kg/injection, schedule: Q01DX009 (ip), vehicle: Klucel (hydroxypropylcellulose) (HPC) 90 % of control | [3] 89 % of control | dose: 150.0 mg/kg/injection, schedule: Q01DX009 (ip), vehicle: Klucel (hydroxypropylcellulose) (HPC) 104 % of control | dose: 300.0 mg/kg/injection, schedule: Q01DX009 (ip), vehicle: Klucel (hydroxypropylcellulose) (HPC) 104 % of control

c1ccc2c(NCCCCCCCCNc3c4ccccc4nc4ccccc34)c3ccccc3nc2c1
inactive: dose: 2.5 mg/kg/injection, schedule: Q01DX009 (ip), vehicle: Klucel (hydroxypropylcellulose) (HPC) 112 % of control | dose: 20.0 mg/kg/injection, schedule: Q01DX009 (ip), vehicle: Klucel (hydroxypropylcellulose) (HPC) 100 % of control

CCCCCCCC(O)CCC (stereo unspecified)
inactive: [3] 108 % of control | [4] 100 % of control | dose: 400.0 mg/kg/injection, schedule: Q04DX003 (ip), vehicle: Klucel (hydroxypropylcellulose) (HPC) 87 % of control

COc1ccc(CN(CCOC(=O)c2ccc(OC)cc2)CCN(CCOC(=O)c2ccc(OC)cc2)Cc2ccc(OC)cc2)cc1
inactive: dose: 25.0 mg/kg/injection, schedule: Q01DX009 (ip), vehicle: other 89 % of control | dose: 25.0 mg/kg/injection, schedule: Q01DX009 (ip), vehicle: water 93 % of control | dose: 25.0 mg/kg/injection, schedule: Q04DX003 (ip), vehicle: water 95 % of control and 100 % of control | dose: 50.0 mg/kg/injection, schedule: Q01DX009 (ip), vehicle: other 91 % of control | dose: 50.0 mg/kg/injection, schedule: Q01DX009 (ip), vehicle: water 101 % of control | dose: 100.0 mg/kg/injection, schedule: Q01DX009 (ip), vehicle: other 86 % of control | dose: 200.0 mg/kg/injection, schedule: Q01DX009 (ip), vehicle: other 94 % of control | dose: 200.0 mg/kg/injection, schedule: Q01DX009 (ip), vehicle: water 110 % of control | dose: 300.0 mg/kg/injection, schedule: Q04DX003 (ip), vehicle: water 107 % of control | dose: 400.0 mg/kg/injection, schedule: Q01DX009 (ip), vehicle: water 95 % of control

CC1(C#N)CCC(CCc2ccccc2)C(=O)C1 (stereo unspecified)
inactive: dose: 75.0 mg/kg/injection, schedule: Q04DX003 (ip), vehicle: saline 95 % of control | dose: 150.0 mg/kg/injection, schedule: Q04DX003 (ip), vehicle: saline 87 % of control | dose: 300.0 mg/kg/injection, schedule: Q04DX003 (ip), vehicle: saline 104 % of control

CC(C)(C)CN1CN(CC(C)(C)C)CN(CC(C)(C)C)C1
inactive: dose: 100.0 mg/kg/injection, schedule: Q04DX002 (ip), vehicle: saline with Tween-80 94 % of control | dose: 200.0 mg/kg/injection, schedule: Q04DX002 (ip), vehicle: saline with Tween-80 97 % of control | dose: 400.0 mg/kg/injection, schedule: Q04DX002 (ip), vehicle: saline with Tween-80 94 % of control

CC(=O)c1ccccc1OCC(O)CN1CCN(c2ccccc2)CC1 (stereo unspecified)
inactive: [5] 100 % of control | dose: 25.0 mg/kg/injection, schedule: Q04DX003 (ip), vehicle: saline with Tween-80 113 % of control | [6] 100 % of control | dose: 50.0 mg/kg/injection, schedule: Q04DX003 (ip), vehicle: saline with Tween-80 104 % of control | [7] 96 % of control | [8] 109 % of control

Cc1[nH]n(CCO)c(=O)c1N=O
inactive: dose: 15.0 mg/kg/injection, schedule: Q01DX009 (ip), vehicle: saline with Tween-80 95 % of control | dose: 30.0 mg/kg/injection, schedule: Q01DX009 (ip), vehicle: saline with Tween-80 93 % of control | dose: 60.0 mg/kg/injection, schedule: Q01DX009 (ip), vehicle: saline with Tween-80 100 % of control
